Measured values: patent US7732607B2 (priority 2005, dated 2010)

These molecules were tested against human M3 receptors (Homo sapiens, UniProt P20309). Conditions: human clonal line TE671/RD.
Sequence of human M3 receptors (P20309 whole entry): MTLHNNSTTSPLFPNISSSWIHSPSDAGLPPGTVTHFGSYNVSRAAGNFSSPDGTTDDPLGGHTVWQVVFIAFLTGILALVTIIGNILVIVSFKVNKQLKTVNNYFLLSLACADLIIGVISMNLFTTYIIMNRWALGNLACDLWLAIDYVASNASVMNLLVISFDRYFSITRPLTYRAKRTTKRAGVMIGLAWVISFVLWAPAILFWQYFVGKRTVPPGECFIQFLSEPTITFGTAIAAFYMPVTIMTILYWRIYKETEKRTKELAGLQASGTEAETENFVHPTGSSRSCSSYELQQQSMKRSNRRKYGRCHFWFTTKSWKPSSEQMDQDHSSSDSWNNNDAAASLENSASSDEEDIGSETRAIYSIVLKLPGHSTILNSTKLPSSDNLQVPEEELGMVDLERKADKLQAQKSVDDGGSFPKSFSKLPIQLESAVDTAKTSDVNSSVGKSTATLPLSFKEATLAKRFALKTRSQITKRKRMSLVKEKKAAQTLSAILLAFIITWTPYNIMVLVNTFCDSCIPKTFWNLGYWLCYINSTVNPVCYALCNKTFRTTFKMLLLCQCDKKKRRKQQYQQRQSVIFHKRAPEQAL
Assay type: binding
In the case of `O=C(c1c[nH]c2ccccc12)N1CC(c2cccnc2)C2C1C1CCN2CC1` (stereo not drawn) [Compound 4, 5-(1H-Indol-3-ylcarbonyl)-3-pyridin-3-yl-1,5-diazatricyclo[5.2.2.0<2,6>]undecane], the “ability to inhibit [3H]QNB binding at muscarinic sites” value (“ability to inhibit [3H]QNB binding” below) is reported as “None of the compounds was able to inhibit [^3H]QNB binding”. `COc1cccc2cc(C(=O)N3CC(c4cccnc4)C4C3C3CCN4CC3)oc12` (stereo not drawn) [Compound 2, 5-(7-Methoxybenzofuran-2-ylcarbonyl)-3-pyridin-3-yl-1,5-diazatricyclo[5.2.2.0<2,6>]undecane] was tested, and the “ability to inhibit [3H]QNB binding” value was “None of the compounds was able to inhibit [^3H]QNB binding”. In the case of `O=C(c1cc2ccccc2o1)N1CC(c2cccnc2)C2C1C1CCN2CC1` (stereo not drawn) [Compound 1, 5-(Benzofuran-2-ylcarbonyl)-3-pyridin-3-yl-1,5-diazatricyclo[5.2.2.0<2,6>]undecane], the “ability to inhibit [3H]QNB binding” value is reported as “None of the compounds was able to inhibit [^3H]QNB binding”.
